Test results: PubChem BioAssay (NCI)
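Grown in 96-well plates, cells were treated for 48 hours with each compound at five concentrations. Insufficient inhibition: endpoint recorded as highest concentration tested. TGI denotes the concentration required for complete inhibition of growth.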

Legend:
Assay in all cases: NCI-60 cell line screen, 48 h
EKVX NSCLC = test system: EKVX NSCLC
DMS 114 small cell lung = test system: DMS 114 small cell lung
MOLT-4 leukemia = test system: MOLT-4 leukemia
SR leukemia = test system: SR leukemia
KM12 colon = test system: KM12 colon
UO-31 renal = test system: UO-31 renal
NCI-H460 lung = test system: NCI-H460 lung
HOP-92 NSCLC = test system: HOP-92 NSCLC
HCT-116 colon = test system: HCT-116 colon
A549 NSCLC = test system: A549 NSCLC
SNB-75 CNS = test system: SNB-75 CNS
NCI-H226 lung = test system: NCI-H226 lung
HCT-15 colon = test system: HCT-15 colon
M14 melanoma = test system: M14 melanoma
786-0 renal = test system: 786-0 renal
OVCAR-3 ovarian = test system: OVCAR-3 ovarian
MALME-3M melanoma = test system: MALME-3M melanoma
LOX IMVI melanoma = test system: LOX IMVI melanoma
CAKI-1 renal = test system: CAKI-1 renal
HL-60(TB) leukemia = test system: HL-60(TB) leukemia
XF 498 CNS = test system: XF 498 CNS
NCI-H23 lung = test system: NCI-H23 lung
DLD-1 colon = test system: DLD-1 colon
SF-295 CNS = test system: SF-295 CNS
SNB-19 CNS = test system: SNB-19 CNS
SNB-78 CNS = test system: SNB-78 CNS
OVCAR-8 ovarian = test system: OVCAR-8 ovarian
CCRF-CEM leukemia = test system: CCRF-CEM leukemia
HOP-18 NSCLC = test system: HOP-18 NSCLC
M19-MEL melanoma = test system: M19-MEL melanoma
DMS 273 small cell lung = test system: DMS 273 small cell lung
SF-539 CNS = test system: SF-539 CNS
UACC-257 melanoma = test system: UACC-257 melanoma
OVCAR-5 ovarian = test system: OVCAR-5 ovarian
RXF 393 renal = test system: RXF 393 renal
ACHN renal = test system: ACHN renal
UACC-62 melanoma = test system: UACC-62 melanoma
A498 renal = test system: A498 renal
HT29 colon = test system: HT29 colon
SK-MEL-2 melanoma = test system: SK-MEL-2 melanoma
RPMI-8226 leukemia = test system: RPMI-8226 leukemia
U251 CNS = test system: U251 CNS
HCC-2998 colon = test system: HCC-2998 colon
KM20L2 colon = test system: KM20L2 colon
TK-10 renal = test system: TK-10 renal
SK-MEL-28 melanoma = test system: SK-MEL-28 melanoma
LXFL 529 NSCLC = test system: LXFL 529 NSCLC
OVCAR-4 ovarian = test system: OVCAR-4 ovarian
SK-MEL-5 melanoma = test system: SK-MEL-5 melanoma
SN12C renal = test system: SN12C renal
K-562 leukemia = test system: K-562 leukemia
SW-620 colon = test system: SW-620 colon
HOP-62 NSCLC = test system: HOP-62 NSCLC
SK-OV-3 ovarian = test system: SK-OV-3 ovarian
IGROV1 ovarian = test system: IGROV1 ovarian
NCI-H522 lung = test system: NCI-H522 lung
COLO 205 colon = test system: COLO 205 colon
RXF-631 renal = test system: RXF-631 renal
SF-268 CNS = test system: SF-268 CNS

`CN(C)C=C1C(=O)N(C)C(=O)N(C)C1=O` was tested, and the TGI (EKVX NSCLC) was > 100 µM, the TGI (DMS 114 small cell lung) was > 100 µM and the TGI (MOLT-4 leukemia) was > 100 µM. For the same compound, the TGI (SR leukemia) was > 100 µM, the TGI (KM12 colon) was > 100 µM and the TGI (UO-31 renal) was > 100 µM. For the same compound, the TGI (NCI-H460 lung) was > 100 µM, the TGI (HOP-92 NSCLC) was > 100 µM and the TGI (HCT-116 colon) was > 100 µM. For the same compound, the TGI (A549 NSCLC) was > 100 µM, the TGI (SNB-75 CNS) was > 100 µM and the TGI (NCI-H226 lung) was > 100 µM. The TGI (HCT-15 colon) was > 100 µM, the TGI (M14 melanoma) was > 100 µM and the TGI (786-0 renal) was > 100 µM. For the same compound, the TGI (OVCAR-3 ovarian) was > 100 µM, the TGI (MALME-3M melanoma) was > 100 µM and the TGI (LOX IMVI melanoma) was > 100 µM. The TGI (CAKI-1 renal) was > 100 µM, the TGI (HL-60(TB) leukemia) was > 100 µM and the TGI (XF 498 CNS) was > 100 µM. For the same compound, the TGI (NCI-H23 lung) was > 100 µM, the TGI (DLD-1 colon) was > 100 µM and the TGI (SF-295 CNS) was > 100 µM. The TGI (SNB-19 CNS) was > 100 µM, the TGI (SNB-78 CNS) was > 100 µM and the TGI (OVCAR-8 ovarian) was > 100 µM. For the same compound, the TGI (CCRF-CEM leukemia) was > 100 µM, the TGI (HOP-18 NSCLC) was > 100 µM and the TGI (M19-MEL melanoma) was > 100 µM. For the same compound, the TGI (DMS 273 small cell lung) was > 100 µM, the TGI (SF-539 CNS) was > 100 µM and the TGI (UACC-257 melanoma) was > 100 µM. The TGI (OVCAR-5 ovarian) was > 100 µM, the TGI (RXF 393 renal) was > 100 µM and the TGI (ACHN renal) was > 100 µM. The TGI (UACC-62 melanoma) was > 100 µM, the TGI (A498 renal) was > 100 µM and the TGI (HT29 colon) was > 100 µM. The TGI (SK-MEL-2 melanoma) was > 100 µM, the TGI (RPMI-8226 leukemia) was > 100 µM and the TGI (U251 CNS) was > 100 µM. For the same compound, the TGI (HCC-2998 colon) was > 100 µM, the TGI (KM20L2 colon) was > 100 µM and the TGI (TK-10 renal) was > 100 µM. For the same compound, the TGI (SK-MEL-28 melanoma) was > 100 µM, the TGI (LXFL 529 NSCLC) was > 100 µM and the TGI (OVCAR-4 ovarian) was > 100 µM. For the same compound, the TGI (SK-MEL-5 melanoma) was > 100 µM, the TGI (SN12C renal) was > 100 µM and the TGI (K-562 leukemia) was > 100 µM. The TGI (SW-620 colon) was > 100 µM.

With `CC1CC(c2ccc(Cl)cc2)=Nc2ccccc2S1` (centres undefined) the TGI (EKVX NSCLC) was > 100 µM, the TGI (DMS 114 small cell lung) was > 100 µM and the TGI (MOLT-4 leukemia) was > 100 µM. For the same compound, the TGI (SR leukemia) was > 100 µM, the TGI (KM12 colon) was > 100 µM and the TGI (UO-31 renal) was > 100 µM. For the same compound, the TGI (NCI-H460 lung) was > 100 µM, the TGI (HOP-62 NSCLC) was > 100 µM and the TGI (HCT-116 colon) was > 100 µM. The TGI (A549 NSCLC) was > 100 µM, the TGI (SNB-75 CNS) was > 100 µM and the TGI (NCI-H226 lung) was > 100 µM. For the same compound, the TGI (HCT-15 colon) was > 100 µM, the TGI (M14 melanoma) was > 100 µM and the TGI (786-0 renal) was > 100 µM. The TGI (OVCAR-3 ovarian) was > 100 µM, the TGI (SK-OV-3 ovarian) was > 100 µM and the TGI (MALME-3M melanoma) was > 100 µM. For the same compound, the TGI (HL-60(TB) leukemia) was > 100 µM, the TGI (IGROV1 ovarian) was > 100 µM and the TGI (NCI-H23 lung) was > 100 µM. The TGI (DLD-1 colon) was > 100 µM, the TGI (SF-295 CNS) was > 100 µM and the TGI (SNB-19 CNS) was > 100 µM. For the same compound, the TGI (SNB-78 CNS) was > 100 µM, the TGI (OVCAR-8 ovarian) was > 100 µM and the TGI (CCRF-CEM leukemia) was > 100 µM. For the same compound, the TGI (M19-MEL melanoma) was > 100 µM, the TGI (NCI-H522 lung) was > 100 µM and the TGI (SF-539 CNS) was > 100 µM. For the same compound, the TGI (UACC-257 melanoma) was > 100 µM, the TGI (OVCAR-5 ovarian) was > 100 µM and the TGI (RXF 393 renal) was > 100 µM. The TGI (ACHN renal) was > 100 µM, the TGI (UACC-62 melanoma) was > 100 µM and the TGI (A498 renal) was > 100 µM. The TGI (HT29 colon) was > 100 µM, the TGI (SK-MEL-2 melanoma) was > 100 µM and the TGI (RPMI-8226 leukemia) was > 100 µM. For the same compound, the TGI (U251 CNS) was > 100 µM, the TGI (COLO 205 colon) was > 100 µM and the TGI (HCC-2998 colon) was > 100 µM. For the same compound, the TGI (KM20L2 colon) was > 100 µM, the TGI (TK-10 renal) was > 100 µM and the TGI (SK-MEL-28 melanoma) was > 100 µM. For the same compound, the TGI (LXFL 529 NSCLC) was > 100 µM, the TGI (OVCAR-4 ovarian) was > 100 µM and the TGI (RXF-631 renal) was > 100 µM. For the same compound, the TGI (SF-268 CNS) was > 100 µM, the TGI (SN12C renal) was > 100 µM and the TGI (K-562 leukemia) was > 100 µM. For the same compound, the TGI (SW-620 colon) was > 100 µM.

With `COc1ccc(/C=C/C(=O)C(C)C)cc1` the TGI (EKVX NSCLC) was > 100 µM, the TGI (DMS 114 small cell lung) was 43 µM and the TGI (MOLT-4 leukemia) was > 100 µM. For the same compound, the TGI (SR leukemia) was > 100 µM, the TGI (KM12 colon) was 98 µM and the TGI (UO-31 renal) was > 100 µM. The TGI (NCI-H460 lung) was > 100 µM, the TGI (HOP-92 NSCLC) was > 100 µM and the TGI (HOP-62 NSCLC) was > 100 µM. The TGI (HCT-116 colon) was > 100 µM, the TGI (A549 NSCLC) was > 100 µM and the TGI (SNB-75 CNS) was > 100 µM. The TGI (HCT-15 colon) was > 100 µM, the TGI (M14 melanoma) was > 100 µM and the TGI (786-0 renal) was > 100 µM. For the same compound, the TGI (OVCAR-3 ovarian) was 61.4 µM, the TGI (SK-OV-3 ovarian) was 90.6 µM and the TGI (MALME-3M melanoma) was > 100 µM. The TGI (LOX IMVI melanoma) was > 100 µM, the TGI (CAKI-1 renal) was > 100 µM and the TGI (HL-60(TB) leukemia) was 59.2 µM. The TGI (XF 498 CNS) was > 100 µM, the TGI (IGROV1 ovarian) was > 100 µM and the TGI (NCI-H23 lung) was > 100 µM. For the same compound, the TGI (DLD-1 colon) was > 100 µM, the TGI (SF-295 CNS) was > 100 µM and the TGI (SNB-19 CNS) was > 100 µM. The TGI (SNB-78 CNS) was 46.7 µM, the TGI (OVCAR-8 ovarian) was > 100 µM and the TGI (CCRF-CEM leukemia) was > 100 µM. The TGI (HOP-18 NSCLC) was > 100 µM, the TGI (M19-MEL melanoma) was > 100 µM and the TGI (DMS 273 small cell lung) was > 100 µM. For the same compound, the TGI (NCI-H522 lung) was 41.7 µM, the TGI (SF-539 CNS) was > 100 µM and the TGI (UACC-257 melanoma) was > 100 µM. The TGI (OVCAR-5 ovarian) was > 100 µM, the TGI (ACHN renal) was > 100 µM and the TGI (UACC-62 melanoma) was > 100 µM. The TGI (A498 renal) was > 100 µM, the TGI (HT29 colon) was 79.6 µM and the TGI (SK-MEL-2 melanoma) was 73.8 µM. The TGI (U251 CNS) was > 100 µM, the TGI (COLO 205 colon) was > 100 µM and the TGI (HCC-2998 colon) was > 100 µM. The TGI (KM20L2 colon) was 64.3 µM, the TGI (TK-10 renal) was > 100 µM and the TGI (SK-MEL-28 melanoma) was > 100 µM. For the same compound, the TGI (LXFL 529 NSCLC) was 54.9 µM, the TGI (OVCAR-4 ovarian) was > 100 µM and the TGI (SK-MEL-5 melanoma) was > 100 µM. For the same compound, the TGI (SF-268 CNS) was > 100 µM, the TGI (SN12C renal) was > 100 µM and the TGI (K-562 leukemia) was > 100 µM. For the same compound, the TGI (SW-620 colon) was > 100 µM.
